In brackets after ≈: the same amount, converted by molar mass.
Assays:
Acinetobacter baumannii [1] = test: Antibacterial activity against Acinetobacter baumannii assessed as planktonic growth inhibition incubated for 18 to 24 hrs by CLSI protocol based assay; format: functional; details: time 18-24 hrs
Acinetobacter baumannii [2] = test: Antibiofilm activity against Acinetobacter baumannii S1 assessed as inhibition rate of biofilm formation at 100 uM incubated for 18 to 24 hrs by crystal violet staining based assay (reference value: 28.8 +/- 8.21%); format: functional; set-up: scale not given: the % may be the effect or the level left; details: time 18-24 hrs
Acinetobacter baumannii [3] = test: Antibacterial activity against Acinetobacter baumannii S1 assessed as planktonic growth inhibition incubated for 18 to 24 hrs by CLSI protocol based assay; format: functional; details: time 18-24 hrs
Acinetobacter baumannii [4] = test: Antibiofilm activity against Acinetobacter baumannii 1778027 assessed as inhibition rate of biofilm formation at 200 uM incubated for 18 to 24 hrs by crystal violet staining based assay relative to control; format: functional; details: time 18-24 hrs
Staphylococcus aureus = test: Antibiofilm activity against Staphylococcus aureus ATCC […] assessed as inhibition rate of biofilm formation at 200 uM incubated for 18 to 24 hrs by crystal violet staining based assay relative to control; format: functional; details: time 18-24 hrs
Acinetobacter baumannii [5] = test: Antibiofilm activity against Acinetobacter baumannii 1913061 assessed as inhibition of biofilm formation incubated for 18 to 24 hrs by crystal violet staining based assay; format: functional, organism-based
Acinetobacter baumannii [6] = test: Antibiofilm activity against Acinetobacter baumannii ATCC19606 assessed as inhibition of biofilm formation incubated for 18 to 24 hrs by crystal violet staining based assay; format: functional, organism-based
[7] = tested on: Staphylococcus epidermidis; test: Antibiofilm activity against Staphylococcus epidermis ATCC 102555 assessed as inhibition rate of biofilm formation at 200 uM incubated for 18 to 24 hrs by crystal violet staining based assay relative to control; format: functional; details: time 18-24 hrs
Pseudomonas aeruginosa = test: Antibiofilm activity against Pseudomonas aeruginosa ATCC 27853 assessed as inhibition rate of biofilm formation at 200 uM incubated for 18 to 24 hrs by crystal violet staining based assay relative to control; format: functional; details: time 18-24 hrs
Acinetobacter baumannii [8] = test: Antibiofilm activity against Acinetobacter baumannii S1 assessed as inhibition of biofilm formation incubated for 18 to 24 hrs by crystal violet staining based assay; format: functional, organism-based
Acinetobacter baumannii [9] = test: Antibiofilm activity against Acinetobacter baumannii 1925052 assessed as inhibition of biofilm formation incubated for 18 to 24 hrs by crystal violet staining based assay; format: functional, organism-based
Acinetobacter baumannii [10] = test: Antibiofilm activity against Acinetobacter baumannii 1780608 assessed as inhibition of biofilm formation incubated for 18 to 24 hrs by crystal violet staining based assay; format: functional, organism-based
Escherichia coli = test: Antibiofilm activity against Escherichia coli Dh5alpha assessed as inhibition rate of biofilm formation at 200 uM incubated for 18 to 24 hrs by crystal violet staining based assay relative to control; format: functional; details: DH5-alpha, time 18-24 hrs

Row | MIC (Acinetobacter baumannii [3]) | SMILES | Activity (Acinetobacter baumannii [2]) | other results
1 | > 256 µg/mL | CCCCCCCCCCCCCC(=O)Nc1nc(Cl)cc(N(C)C)n1 | 40.5% | 
2 | > 256 µg/mL | CCCCCCCCCCCCCCCC(=O)Nc1ncccn1 | 22.5% | 
3 | > 256 µg/mL | CCCCCCCCCCCCCC(=O)Nc1nc(Cl)cc(N2CCOCC2)n1 | 28.5% | 
4 | > 256 µg/mL | CCCCCCCCCCCCCC(=O)Nc1ncc(Cl)cn1 | 40.5% | 
5 | > 256 µg/mL | CCCCCCCCCCCCCC(=O)Nc1ncccn1 | 36.3% | 
6 | > 256 µg/mL | CCCCCCCCCCCCCC(=O)Nc1nccc(N)n1 | 35.8% | 
7 | > 256 µg/mL | CCCCCCCCCCCCCC(=O)Nc1nc(Cl)cc(OC)n1 | 49.5% | 

Continued, compound first:

Row | SMILES | MIC (Acinetobacter baumannii [3]) | Activity (Acinetobacter baumannii [2]) | other results
8 | O=C(N[C@H](CO)[C@H](O)c1ccc([N+](=O)[O-])cc1)C(Cl)Cl [CHLORAMPHENICOL] |  |  | MIC (Acinetobacter baumannii [1]): 256 µg/mL (≈ 792 µM)
9 | O=C(Nc1ncccn1)c1cccc2ccccc12 | > 256 µg/mL | 9.4% | 
10 | O=C(Cc1cccc(Br)c1)N[C@H]1CCOC1=O |  |  | inhibition at 200 µM (Acinetobacter baumannii [4]): < 50%; inhibition at 200 µM (Staphylococcus aureus): < 50%; IC50 (Acinetobacter baumannii [5]): 22.8 µM; IC50 (Acinetobacter baumannii [6]): 85.3 µM; inhibition at 200 µM [7]: < 50%; inhibition at 200 µM (Pseudomonas aeruginosa): < 50%; IC50 (Acinetobacter baumannii [8]): 143 µM; IC50 (Acinetobacter baumannii [9]): 195 µM; IC50 (Acinetobacter baumannii [10]): 120 µM; inhibition at 200 µM (Escherichia coli): < 50%
11 | O=C(Nc1ncccn1)c1ccccc1 | > 256 µg/mL | 28% | 
12 | O=C(COc1ccccc1)Nc1ncccn1 | > 256 µg/mL | 18.2% | 
13 | CCCCCCCCCC(=O)Nc1ncccn1 | > 256 µg/mL | 33.2% | 
14 | CCCCCCCCCCCCCC(=O)N1CCN(c2ncccn2)CC1 | > 256 µg/mL | 27.9% | 
15 | O=C(CCc1ccccc1)Nc1ncccn1 | > 256 µg/mL | -0.2% | 
16 | CCCCCCCCCCCCCC(=O)Nc1nc(N)cc(F)n1 |  | 53.1% | 
17 | CCCCCCCCCCCC(=O)Nc1ncccn1 | > 256 µg/mL | 19.1% | 
18 | O=C(Cc1cccs1)Nc1ncccn1 | > 256 µg/mL | 5.5% | 
19 | O=C(Nc1ncccn1)C(F)(F)C(F)(F)C(F)(F)F | > 256 µg/mL | 19.9% | 
20 | CCCCCC(=O)Nc1ncccn1 | > 256 µg/mL | 23.3% | 
21 | CN[C@@H]1[C@@H](O)[C@@H](O[C@@H]2[C@@H](O)[C@H](O[C@H]3O[C@H]([C@@H](C)NC)CC[C@H]3N)[C@@H](N)C[C@H]2N)OC[C@]1(C)O.O=S(=O)(O)O |  |  | MIC (Acinetobacter baumannii [1]): 1 µg/mL
22 | CC(C)CC(=O)Nc1ncccn1 | > 256 µg/mL | 3.8% | 
